From US20060035925A1, “SUBSTITUTED 4H-CHROMENES AND ANALOGS AS ACTIVATORS OF CASPASES AND INDUCERS OF APOPTOSIS AND THE USE THEREOF” (Cytovia, Inc., priority 1999, published 2006)
Like-named read-outs stand apart in the source and are kept apart here.

Columns and labels:
[1] = tested on: Human breast cancer cell line ZR-75-1; experiment: Caspase cascade activation assay (N-(Ac-DEVD)-N'-ethoxycarbonyl-R110 fluorogenic substrate) in ZR-75-1 cells; assay type: cell-based; conditions: for Caspase activity (Ratio) ZR-75-1: 24 h incubation with compound, ratio of net RFU (T=3 h) of test compound to control
Experimental: (§1) Human breast cancer cell lines T-47D and ZR-75-1 were grown according to media component mixtures designated by American Type Culture Collection +10% FCS (Invitrogen Corporation), in a 5% CO2-95% humidity incubator at 37° C. T-47D and ZR-75-1 cells were maintained at a cell density between 30 and 80% confluency at a cell density of 0.1 to 0.6×10^6 cells/ml. Cells were harvested at 600×g and resuspended at 0.65×10^6 cells/mL into appropriate media +10% FCS. An aliquot of 45 μl of cells was added to a well of a 96-well microtiter plate containing 5 μl of a 10% DMSO in RPMI-1640 media solution containing 0.16 to 10 μM of 2-amino-3-cyano-4-(3-bromo-4,5-dimethoxyphenyl)-4H-indolo[7,6-b]pyran (Example 42) or other test compound (0.016 to 1 μM final). An aliquot of 45 μl of cells was added to a well of a 96-well microtiter plate containing 5 μl of a 10% DMSO in RPMI-1640 media solution without test compound as the control sample. The samples were mixed by agitation and then incubated at 37° C. for 24 h in a 5% CO2-95% humidity incubator. After incubation, the samples were removed from the incubator and 50 μl of a solution containing 20 μM of N-(Ac-DEVD)-N′-ethoxycarbonyl-R110 (SEQ ID NO:1) fluorogenic substrate (Cytovia, Inc.; WO99/18856), 20% sucrose (Sigma), 20 mM DTT (Sigma), 200 mM NaCl (Sigma), 40 mM Na PIPES buffer pH 7.2 (Sigma), and 500 μg/ml lysolecithin (Calbiochem) was added. The samples were mixed by agitation and incubated at room temperature. Using a fluorescent plate reader (Model 1420 Wallac Instruments), an initial reading (T=0) was made approximately 1-2 min after addition of the substrate solution, employing excitation at 485 nm and emission at 530 nm, to determine the background fluorescence of the control sample. After the 3 h incubation, the samples were read for fluorescence as above (T=3 h).
(§2) The Relative Fluorescence Unit values (RFU) were used to calculate the sample readings as follows: RFU(T=3h)−Control RFU(T=0)=Net RFU(T=3h)
(§3) The activity of caspase cascade activation was determined by the ratio of the net RFU value for 2-amino-3-cyano-4-(3-bromo-4,5-dimethoxyphenyl)-4H-indolo[7,6-b]pyran or other test compound to that of control samples. The EC50 (nM) was determined by a sigmoidal dose-response calculation (Prism 2.0, GraphPad Software Inc.).

[2] = tested on: Human breast cancer cell line T-47D; experiment: Caspase cascade activation assay (N-(Ac-DEVD)-N'-ethoxycarbonyl-R110 fluorogenic substrate) in T-47D cells; assay type: cell-based; conditions: for Caspase activity (Ratio) T-47D: 24 h incubation with compound, ratio of net RFU (T=3 h) of test compound to control
Experimental: as §1, §2, §3

[3] = ZR-75-1 cells, 24 h incubation, sigmoidal dose-response, read-out: Caspase potency EC50 (nM) ZR-75-1
[4] = 24 h incubation, sigmoidal dose-response, read-out: Caspase potency EC50 (nM) T-47D
[5] = Homo sapiens, ZR-75-1, ZR-75-1 cells, additional compounds, Table II, read-out: Caspase potency EC50 (nM) ZR-75-1, Table II
[6] = ZR-75-1 cells, additional compounds, Table II
[7] = Homo sapiens, T47D, additional compounds, Table II, read-out: Caspase potency EC50 (nM) T-47D, Table II
[8] = Homo sapiens, ZR-75-1, 24 h, ZR-75-1 cells, 24 h incubation, sigmoidal dose-response, read-out: Caspase potency EC50 (nM) ZR-75-1
[9] = Homo sapiens, T47D, 24 h, 24 h incubation, sigmoidal dose-response, read-out: Caspase potency EC50 (nM) T-47D

Row | EC50 [1, 8] [nM] | EC50 [2, 9] [nM] | Molecule | Caspase activity (Ratio) ZR-75-1 ([1]; ZR-75-1 cells) | Caspase activity (Ratio) T-47D [2] | also measured
1 | – | – | 2-Amino-3-cyano-7-methoxy-4-(2,4-dimethoxypyrimidinyl)-4H-chromene [Example 27] | <2 | <2 | EC50 [1, 3]: > 10000 nM; EC50 [2, 4]: > 10000 nM
2 | – | – | 2-Amino-3-ethoxycarboxyl-4-(3-bromo-4,5-dimethoxy-phenyl)-4H-indolo[4,5-b]pyran [Example 72] | 3.6 | 1.2 | EC50 [1, 3]: 567 nM; EC50 [2, 4]: > 1000 nM
3 | – | – | 2-Amino-4-(3-bromo-4,5-dimethoxyphenyl)-3-cyano-9-methyl-4H-imidazo[4,5-b]chromene [Example 75] | 3.4 | 6.3 | EC50 [1, 3]: 146 nM; EC50 [2, 4]: 345 nM
4 | – | – | COc1cc(C2C(C#N)=C(N)Oc3cc(N)ccc32)cc(OC)c1OC (stereo not drawn) [2,7-Diamino-3-cyano-4-(3,4,5-trimethoxyphenyl)-4H-chromene] | – | – | EC50 [1, 5]: 15 nM; Caspase activity (Ratio) ZR-75-1, Table II [1, 6]: 3.5; EC50 [2, 7]: 30 nM; Caspase activity (Ratio) T-47D, Table II ([2]; additional compounds, Table II): 4.2
5 | – | – | N#CC1=C(N)Oc2cc(N)ccc2C1c1cccc(I)c1 (stereo not drawn) [2,7-Diamino-3-cyano-4-(3-iodophenyl)-4H-chromene] | – | – | EC50 [1, 5]: 18 nM; Caspase activity (Ratio) ZR-75-1, Table II [1, 6]: 5.1; EC50 [2, 7]: 33 nM; Caspase activity (Ratio) T-47D, Table II ([2]; additional compounds, Table II): 4.8
6 | – | – | N#CC1=C(N)Oc2cc(N)ccc2C1c1ccccc1 (stereo not drawn) [2,7-Diamino-3-cyano-4-phenyl-4H-chromene] | – | – | EC50 [1, 5]: 2880 nM; Caspase activity (Ratio) ZR-75-1, Table II [1, 6]: 8.6; EC50 [2, 7]: 5630 nM; Caspase activity (Ratio) T-47D, Table II ([2]; additional compounds, Table II): 6.3
7 | – | – | CCC(C)C(=O)Nc1ccc2c(c1)OC(N)=C(C#N)C2c1cc(Br)c(OC)c(OC)c1 (stereo not drawn) [2-Amino-3-cyano-7-(2-methylbutanoylamino)-4-(3-bromo-4,5-dimethoxyphenyl)-4H-chromene] | – | – | Caspase activity (Ratio) ZR-75-1, Table II [1, 6]: Inactive; Caspase potency EC50 (nM) ZR-75-1, Table II [1, 6]: Inactive; Caspase activity (Ratio) T-47D, Table II ([2]; additional compounds, Table II): Inactive; Caspase potency EC50 (nM) T-47D, Table II ([2]; additional compounds, Table II): Inactive
8 | – | – | COc1cc(C2C(C#N)=C(N)Oc3cc(O)ccc32)cc(OC)c1OC (stereo not drawn) [2-Amino-3-cyano-7-hydroxy-4-(3,4,5-trimethoxyphenyl)-4H-chromene] | – | – | EC50 [1, 5]: 208 nM; Caspase activity (Ratio) ZR-75-1, Table II [1, 6]: 10.3; EC50 [2, 7]: 456 nM; Caspase activity (Ratio) T-47D, Table II ([2]; additional compounds, Table II): 7.3
9 | 94 | 153 | COc1cc(C2C(C#N)=C(N)Oc3cc(O)ccc32)cc(Br)c1OC (stereo not drawn) [Example 1, 2-Amino-3-cyano-7-hydroxy-4-(3-bromo-4,5-dimethoxyphenyl)-4H-chromene] | 10.8 | 5.1 | –
10 | 14 | 72 | CCNc1ccc2c(c1)OC(N)=C(C#N)C2c1cc(Br)c(OC)c(OC)c1 (stereo not drawn) [Example 2A, 2-Amino-3-cyano-7-ethylamino-4-(3-bromo-4,5-dimethoxyphenyl)-4H-chromene] | 4.1 | 4.0 | –
11 | > 10000 | > 10000 | N#CC1=C(N)Oc2cc(O)ccc2C1c1cccc(C#N)c1 (stereo not drawn) [Example 2B, 2-Amino-3-cyano-7-hydroxy-4-(3-cyanophenyl)-4H-chromene] | 1.9 | 1.2 | –
12 | > 10000 | > 10000 | COc1cc(C2C(C#N)=C(N)Oc3c2ccc(O)c3O)cc(Br)c1OC (stereo not drawn) [Example 2C, 2-Amino-3-cyano-7,8-dihydroxy-4-(3-bromo-4,5-dimethoxyphenyl)-4H-chromene] | 0.9 | 1.1 | –
13 | 50 | 78 | N#CC1=C(N)Oc2cc(N)ccc2C1c1cc(Cl)cc(Cl)c1 (stereo not drawn) [Example 2D, 2-Amino-3-cyano-7-amino-4-(3,5-dichlorophenyl)-4H-chromene] | 4.4 | 4.4 | –
14 | 29 | 39 | COc1ccc2c(c1)OC(N)=C(C#N)C2c1cc(Cl)cc(Cl)c1 (stereo not drawn) [Example 2E, 2-Amino-3-cyano-7-methoxy-4-(3,5-dichlorophenyl)-4H-chromene] | 4.4 | 4.1 | –
15 | 26 | 44 | N#CC1=C(N)OC2C3=CC=NC3=CC=C2C1c1cc(Cl)cc(Cl)c1 (stereo not drawn) [Example 2F, 2-Amino-3-cyano-4-(3,5-dichlorophenyl)-4H-indolo[4,5-b]pyran] | 4.4 | 4.7 | –
16 | 25 | 56 | N#CC1=C(N)OC2C3=CC=NC3=CC=C2C1c1cccc(Cl)c1 (stereo not drawn) [Example 2G, 2-Amino-3-cyano-4-(3-chlorophenyl)-4H-indolo[4,5-b]pyran] | 4.5 | 5.6 | –
17 | 16 | 29 | COc1cc(C2C(C#N)=C(N)Oc3c2ccc(N)c3C)cc(Br)c1OC (stereo not drawn) [Example 2H, 2-Amino-3-cyano-7-amino-8-methyl-4-(3-bromo-4,5-dimethoxyphenyl)-4H-chromene] | 3.9 | 5.5 | –
18 | – | 50.4 | COc1cc(C2C(C#N)=C(N)Oc3c2ccc(O)c3N)cc(Br)c1OC (stereo not drawn) [Example 2I, 2-Amino-3-cyano-7-hydroxy-8-amino-4-(3-bromo-4,5-dimethoxyphenyl)-4H-chromene] | – | 6.2 | –
19 | 21 | 34 | COc1ccc2c(c1)OC(N)=C(C#N)C2c1cc(F)cc(F)c1 (stereo not drawn) [Example 2J, 2-Amino-3-cyano-7-methoxy-4-(3,5-difluorophenyl)-4H-chromene] | 7.4 | 5.0 | –
20 | 16 | 37 | N#CC1=C(N)OC2C3=CC=NC3=CC=C2C1c1cc(F)cc(F)c1 (stereo not drawn) [Example 2K, 2-Amino-3-cyano-4-(3,5-difluorophenyl)-4H-indolo[4,5-b]pyran] | 6.9 | 5.6 | –
21 | 41 | 63 | N#CC1=C(N)OC2C3=CC=NC3=CC=C2C1c1cccc(F)c1 (stereo not drawn) [Example 2L, 2-Amino-3-cyano-4-(3-fluorophenyl)-4H-indolo[4,5-b]pyran] | 7.4 | 4.5 | –
22 | 786 | 1390 | N#CC1=C(N)Oc2cc(N)ccc2C1c1cccc(F)c1 (stereo not drawn) [Example 2M, 2-Amino-3-cyano-7-amino-4-(3-fluorophenyl)-4H-chromene] | 6.9 | 5.8 | –
23 | 47 | 57 | COc1ccc2c(c1)OC(N)=C(C#N)C2c1cccc(F)c1 (stereo not drawn) [Example 2N, 2-Amino-3-cyano-7-methoxy-4-(3-fluorophenyl)-4H-chromene] | 6.8 | 4.2 | –
24 | 193 | 323 | N#CC1=C(N)Oc2cc(N)ccc2C1c1cc(F)cc(F)c1 (stereo not drawn) [Example 2O, 2-Amino-3-cyano-7-amino-4-(3,5-difluorophenyl)-4H-chromene] | 7.1 | 6.4 | –
25 | 16 | 29 | COc1ccc2c(c1)OC(N)=C(C#N)C2c1cc(OC)c(OC)c(OC)c1 (stereo not drawn) [Example 3, 2-Amino-3-cyano-7-methoxy-4-(3,4,5-trimethoxyphenyl)-4H-chromene] | 4.5 | 8.4 | –
26 | 33 | 37 | COc1cccc(C2C(C#N)=C(N)Oc3cc(OC)ccc32)c1 (stereo not drawn) [Example 4, 2-Amino-3-cyano-7-methoxy-4-(3-methoxyphenyl)-4H-chromene] | 5.6 | 8.1 | –
